Data: patent US4251546A, “Process for killing internal helminths using certain 1,1-bis-(2-substituted-3-nitrophenyl)alkane or alkylene derivatives” (ICI Australia Limited, priority 1977, dated 1981)

Legend:
[1] = test system: sheep liver fluke (Fasciola hepatica); experiment: Fluke egg count in faeces and adult fluke count in liver of infected sheep after a single s/c dose (Table 3); format: in vivo; settings: for POST MORTEM RESULT No. of adult fluke: liver
Method: Compositions suitable for use as experimental injectable solutions were prepared by formulating the compounds as solutions of their salts either in water or in a mixture of water and ethylene glycol or water and polyethylene glycol (PEG200).
Compositions prepared by the method of Example 10 were used as a single dose to test sheep infected with sheep liver fluke (Fasciola hepatica). The number of liver fluke eggs in the faeces was measured at the time of treatment and at selected intervals up to 30 days after treatment. The sheep were killed and the number of adult fluke in the liver counted. The amount and structure of the active ingredient in each composition and the results of treatment of a sheep with that composition are given in the Table 3 below. The compositions were administered by sub-cutaneous injection (s/c).

immature fluke = experiment: Effectiveness against immature fluke (Table 3 footnotes); format: in vivo, Fasciola hepatica
live Fasciola hepatica = experiment: Minimum effective concentration against live Fasciola hepatica in Hedon-Fleig medium (Table 4); settings: in vitro, assessed 24 hours after treatment, read-out: MINIMUM EFFECTIVE CONCENTRATION (minimum concentration required to kill Fasciola hepatica)
Method: The minimum effective concentration of compounds of formula I against live Fasciola hepatica was tested by the direct application of the test compound, in solution, to live Fasciola hepatica in Hedon-Fleig medium. The results are given in Table 4 where the minimum effective concentration (minimum concentration required to kill Fasciola hepatica) was assessed 24 hours after treatment with the test compound.

Row | Compound | FAECAL EGG COUNT, day 7 ([1]; single dose 2.0 mg/kg) | FAECAL EGG COUNT, day 14 ([1]; single dose 2.0 mg/kg) | POST MORTEM RESULT No. of adult fluke ([1]; single dose 2.0 mg/kg) | effective against immature fluke (immature fluke; 15 mg/kg) | minimal effective concentration (live Fasciola hepatica) | FAECAL EGG COUNT, day 7 ([1]; single dose 6.0 mg/kg) | FAECAL EGG COUNT, day 14 ([1]; single dose 6.0 mg/kg) | POST MORTEM RESULT No. of adult fluke ([1]; single dose 6.0 mg/kg) | other results
1 | O=[N+]([O-])c1cc(Cl)cc(C(=C(Cl)Cl)c2cc(Cl)cc([N+](=O)[O-])c2O)c1O [Compound 14] | 60 Eggs/g faeces | 0 Eggs/g faeces | 0 | 100% |  |  |  |  | FAECAL EGG COUNT, day 7 ([1]; single dose 0.5 mg/kg): 0 Eggs/g faeces; FAECAL EGG COUNT, day 14 ([1]; single dose 0.5 mg/kg): 0 Eggs/g faeces; POST MORTEM RESULT No. of adult fluke ([1]; single dose 0.5 mg/kg): 0; FAECAL EGG COUNT, day 7 ([1]; single dose 12.5 mg/kg): 0 Eggs/g faeces; FAECAL EGG COUNT, day 14 ([1]; single dose 12.5 mg/kg): 0 Eggs/g faeces; POST MORTEM RESULT No. of adult fluke ([1]; single dose 12.5 mg/kg): 0; effective against immature fluke (immature fluke; 10 mg/kg): 90.6%
2 | O=[N+]([O-])c1cc(Br)cc(C(=C(Cl)Cl)c2cc(Br)cc([N+](=O)[O-])c2O)c1O [Compound 15] | 0 Eggs/g faeces | 0 Eggs/g faeces | 0 | 94% |  |  |  |  | FAECAL EGG COUNT, day 7 ([1]; single dose 12.5 mg/kg): 0 Eggs/g faeces; FAECAL EGG COUNT, day 14 ([1]; single dose 12.5 mg/kg): 0 Eggs/g faeces; POST MORTEM RESULT No. of adult fluke ([1]; single dose 12.5 mg/kg): 0; effective against immature fluke (immature fluke; 10 mg/kg): 91.4%
3 | O=[N+]([O-])c1cc(Cl)cc(C(SCc2ccc(Cl)cc2)c2cc(Cl)cc([N+](=O)[O-])c2O)c1O [Compound 49] |  |  |  |  | 1.5 µg/mL |  |  |  | 
4 | O=[N+]([O-])c1ccc(SC(c2cc(Cl)cc([N+](=O)[O-])c2O)c2cc(Cl)cc([N+](=O)[O-])c2O)cc1 [Compound 52] |  |  |  |  | 1 µg/mL |  |  |  | 
5 | O=[N+]([O-])c1cc(Cl)cc(C(c2cc(Cl)cc([N+](=O)[O-])c2O)C(F)(F)F)c1O [Compound 53, 1,1-Bis(5-chloro-2-hydroxy-3-nitrophenyl)-2,2,2-trifluoroethane] |  |  |  | 97% |  | 0 Eggs/g faeces | 0 Eggs/g faeces | 0 | FAECAL EGG COUNT, day 7 ([1]; single dose 3.0 mg/kg): 460 Eggs/g faeces; FAECAL EGG COUNT, day 14 ([1]; single dose 3.0 mg/kg): 0 Eggs/g faeces; POST MORTEM RESULT No. of adult fluke ([1]; single dose 3.0 mg/kg): 0
6 | O=[N+]([O-])c1cc(Cl)cc(C(c2cc(Cl)cc([N+](=O)[O-])c2O)C(F)(F)C(F)(F)F)c1O [Compound 54] | 10 Eggs/g faeces | 0 Eggs/g faeces | 0 | 83% |  | 0 Eggs/g faeces | 0 Eggs/g faeces | 0 | 
7 | O=[N+]([O-])c1cc(Br)cc(C(c2cc(Br)cc([N+](=O)[O-])c2O)C(F)(F)F)c1O [Compound 56] |  |  |  |  | 1 µg/mL | 10 Eggs/g faeces | 0 Eggs/g faeces | 0 | 
